Tests used:
[1] = Chickens given allopurinol to lower uric acid; glycosylation damage; format: in vivo
Experimental: The following example was conducted to establish the role of uric acid in protecting against the sequelia associated with diabetic damage. It is established that this sequelia occurs in diabetic patients due to increases in sugar levels that result from either the insufficient production of insulin or the insufficient breakdown of sugar by the insulin, depending of the type of diabetes. Sugar, in excess conditions, can become an oxidizer, which leads to oxidative damage in a patient. Glycosylated hemoglobin (HBA1C) is used to measure the amount of oxidative damage that results from excess sugar in a patient; increased (HBA1C) is the definition used for diabetes. […] Chickens are known to have excessively high sugar levels, and should be essentially in a diabetic state. […] To confirm the causal relationship between high levels of uric acid and prevention of glycosylation damage, chickens were given allopurinol. This compound specifically […].

[2] = Oral uric acid precursor in a person with Alzheimer's; format: in vivo, human; details: one Alzheimer's patient; 500-1,000 mg orally per day; upon raising uric acid levels

Oc1ncnc2[nH]ncc12 [allopurinol]
signs of diabetic complications ([1]; after uric acid reduced to below normal levels): exhibited signs of diabetic complications
uric acid levels ([1]; enough administered to effect significant conversion of uric acid): lowering of uric acid levels
levels of the chicken equivalent of A1C (glycosylated hemoglobin) ([1]; once uric acid reduced to below normal levels): increased dramatically

O=c1[nH]cnc2nc[nH]c12 [hypoxanthine]
Alzheimer symptoms (not recognizing bathroom, incontinence, general cognitive decline) [2]: reduced

OC[C@H]1O[C@@H](n2cnc3c(O)ncnc32)[C@H](O)[C@@H]1O [inosine]
Alzheimer symptoms (not recognizing bathroom, incontinence, general cognitive decline) [2]: reduced

Source: patent US20120041006A1, “Compositions for Raising Uric Acid Levels and Methods of Using the Same” (priority 1998, published 2012)
